Assay results taken from the NIST ThermoML archive (doi:10.1021/je800636k).

Assay: xn = mol fraction of the nth substance listed
Settings: 101 kPa, Liquid; for electrical conductivity: Qcond 2400 VWR international / cell constant, 1.05; for viscosity: Concentric cylinders viscometry; for mass density: Vibrating tube method

CCCCn1cc[n+](C)c1C.[N-]=[N+]=[N-] [1-butyl-2,3-dimethylimidazolium azide] + CCCCn1cc[n+](C)c1C.F[B-](F)(F)F
Settings | electrical conductivity [S/m] | mass density [kg/m3] | viscosity [mPa·s]
303.15 K, x1 = 0.25 | 0.0809 | – | –
303.15 K, x1 = 0.5 | 0.0608 | – | –
303.15 K, x1 = 0.75 | 0.0604 | – | –
303.15 K, x1 = 1 | 0.0488 | – | –
308.15 K, x1 = 0.25 | 0.114 | – | –
308.15 K, x1 = 0.5 | 0.0887 | – | –
308.15 K, x1 = 0.75 | 0.0881 | – | –
308.15 K, x1 = 1 | 0.0756 | – | –
313.15 K, x1 = 0.25 | 0.156 | 1154.97 | 210.46
313.15 K, x1 = 0.5 | 0.125 | 1129.46 | 292.06
313.15 K, x1 = 0.75 | 0.124 | 1098.68 | 353.89
313.15 K, x1 = 1 | 0.112 | 1070.46 | 338.19
318.15 K, x1 = 0.25 | 0.208 | – | –
318.15 K, x1 = 0.5 | 0.172 | – | –
318.15 K, x1 = 0.75 | 0.171 | – | –
318.15 K, x1 = 1 | 0.159 | – | –
323.15 K, x1 = 0.25 | 0.271 | 1148.74 | 115.24
323.15 K, x1 = 0.5 | 0.23 | 1123.48 | 156.81
323.15 K, x1 = 0.75 | 0.228 | 1092.32 | 183.02
323.15 K, x1 = 1 | 0.219 | 1065.14 | 176.04
328.15 K, x1 = 0.25 | 0.345 | – | –
328.15 K, x1 = 0.5 | 0.302 | – | –
328.15 K, x1 = 0.75 | 0.299 | – | –
328.15 K, x1 = 1 | 0.294 | – | –
333.15 K, x1 = 0.25 | 0.433 | 1142.5 | 68.72
333.15 K, x1 = 0.5 | 0.388 | 1117.5 | 92.5
333.15 K, x1 = 0.75 | 0.383 | 1085.96 | 105.08
333.15 K, x1 = 1 | 0.383 | 1059.83 | 101.63
338.15 K, x1 = 0.25 | 0.535 | – | –
338.15 K, x1 = 0.5 | 0.489 | – | –
338.15 K, x1 = 0.75 | 0.483 | – | –
338.15 K, x1 = 1 | 0.49 | – | –
343.15 K, x1 = 0.25 | 0.651 | 1136.27 | 43.88
343.15 K, x1 = 0.5 | 0.608 | 1111.52 | 58.77
343.15 K, x1 = 0.75 | 0.599 | 1079.6 | 65.45
343.15 K, x1 = 1 | 0.614 | 1054.52 | 63.6
348.15 K, x1 = 0.25 | 0.783 | – | –
348.15 K, x1 = 0.5 | 0.744 | – | –
348.15 K, x1 = 0.75 | 0.733 | – | –
348.15 K, x1 = 1 | 0.756 | – | –
353.15 K, x1 = 0.25 | 0.929 | 1130.03 | 29.62
353.15 K, x1 = 0.5 | 0.899 | 1105.54 | 39.64
353.15 K, x1 = 0.75 | 0.885 | 1073.24 | 43.5
353.15 K, x1 = 1 | 0.918 | 1049.21 | 42.44
358.15 K, x1 = 0.25 | 1.09 | – | –
358.15 K, x1 = 0.5 | 1.07 | – | –
358.15 K, x1 = 0.75 | 1.06 | – | –
358.15 K, x1 = 1 | 1.1 | – | –
363.15 K, x1 = 0.25 | 1.27 | 1123.8 | 20.94
363.15 K, x1 = 0.5 | 1.27 | 1099.56 | 28.06
363.15 K, x1 = 0.75 | 1.25 | 1066.87 | 30.46
363.15 K, x1 = 1 | 1.3 | 1043.9 | 29.82
368.15 K, x1 = 0.25 | 1.47 | – | –
368.15 K, x1 = 0.5 | 1.49 | – | –
368.15 K, x1 = 0.75 | 1.46 | – | –
368.15 K, x1 = 1 | 1.52 | – | –
373.15 K, x1 = 0.25 | – | 1117.56 | 15.38
373.15 K, x1 = 0.5 | – | 1093.58 | 20.68
373.15 K, x1 = 0.75 | – | 1060.51 | 22.27
373.15 K, x1 = 1 | – | 1038.59 | 21.87
